Measurements as given in US9951115B2, “CGRP agonist peptides” (priority 2013, dated 2018).
Bridge positions count the residues as written; N and C are the ends. Peptide text beside a SMILES is read from it.

Experiments:
[1] = molecular target: T1, CALCRL:RAMP3 (adrenomedullin 2 (AM2) receptor) (Homo sapiens, UniProt O60896+Q16602); assay: CALCRL:RAMP3 CRE-bla Freestyle 293F agonist screen (adrenomedullin 2 receptor); type: cell-based; conditions: CALCRL:RAMP3-CRE-bla Freestyle 293F cells, 5 hours incubation, FIG. 2
T1 construct: host or cells: Freestyle 293F (CRE-bla reporter line)
Procedure: Cell-based GPCR Profiling Assays. A representative CGRP agonist peptide according to the present invention, ACX017 (SEQ ID NO:1), was profiled against G-Protein Coupled Receptors (GPCRs) in cell-based assays to determine its agonist activity and dose response. Assays were performed using the SelectScreen® Cell-based GPCR Profiling Services by Life Technologies, Carlsbad, Calif.
CALCRL:RAMP3—CRE-bla Freestyle 293F—Agonist Screen (Adrenomedullin 2 Receptor)
CALCRL:RAMP3-CRE-bla Freestyle 293F cells were thawed and resuspended in Assay Media (DMEM, 10% dialyzed FBS, 25 mM HEPES pH 7.3, 0.1 mM NEAA, 100 U/mL/100 μg/mL Pen/Strep) to a concentration of 312,500 cells/mL. 32 μL of cell suspension (10,000 cells) was added to each well of a 384-well Poly-D-Lysine assay plate. Cells in Assay Media were incubated for 16-24 hours in the plate at 37° C./5% CO2 in a humidified incubator. 4 μL of a 10× serial dilution of Adrenomedullin or ACX017 were added to appropriate wells of the plate. […] The plate was read on a fluorescence plate reader. […]
Cell-free Control. […] It was used to determine the background fluorescence for both coumarin and fluorescein wavelengths. […]
Known Agonist. A known agonist titration was run on every plate for each cell-line to ensure the cell line was activated within an expected EC50/IC50 range as previously determined.

[2] = system: Sprague Dawley rats, food intake; assay: Four-day food intake study; type: in vivo, rat; conditions: male Sprague Dawley rats on 60% kcal fat diet, 150 μg/kg intraperitoneal once daily for four days, food intake at 2, 4, 6, 8 hours post dose
Procedure: Food Intake Study. The effect of a CGRP agonist, in accordance with the present invention, on food intake over time both within and across several days of treatment was evaluated. Study was performed by Explora BioLabs, San Diego, Calif. and animals treated in accordance with its IACUC standards.
On Day 0, 12 animals were randomized into two groups, Test and Control, to obtain similar body weight averages between groups. Animals were dosed via a single intraperitoneal injection, with either ACX017 (SEQ. ID NO:1) (Test group) or vehicle (Control group) each day, for four days. On each day, dosing was performed in the hour prior to the end of the light phase. ACX017 was dosed at 150 μg/kg in a 10% DMSO aqueous solution. Both ACX017 and vehicle were delivered as 1 mL/kg doses.
Food consumption was measured pre-dose and at 2, 4, 6 and 8 hours post dose. Food intake was measured by weighing food hoppers on Days 1, 2, 3 and four in the hour before end of the light phase and at 2, 4, 6 and 8 hours post dosing.
Average food intake for each of the Test and Control groups at each time point post dosing was determined. Cumulative food intake for each group over the entire test period (8 hours) is provided in graph form in FIGS. 1-4 for each of Days 1-4, respectively.

T1 sequence (Q16602 23-461): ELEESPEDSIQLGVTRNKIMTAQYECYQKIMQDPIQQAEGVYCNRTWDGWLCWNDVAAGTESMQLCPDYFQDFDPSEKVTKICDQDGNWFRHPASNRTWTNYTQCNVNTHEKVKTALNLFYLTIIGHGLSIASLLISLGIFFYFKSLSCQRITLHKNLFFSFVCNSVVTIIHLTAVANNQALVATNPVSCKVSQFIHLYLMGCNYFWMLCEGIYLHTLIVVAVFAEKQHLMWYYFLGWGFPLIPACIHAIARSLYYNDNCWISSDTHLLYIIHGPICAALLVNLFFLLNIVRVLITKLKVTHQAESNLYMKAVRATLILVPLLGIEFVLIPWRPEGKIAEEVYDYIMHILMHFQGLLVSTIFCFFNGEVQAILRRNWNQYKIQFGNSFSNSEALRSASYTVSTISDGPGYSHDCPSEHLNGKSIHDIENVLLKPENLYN
T1 sequence (O60896 24-148): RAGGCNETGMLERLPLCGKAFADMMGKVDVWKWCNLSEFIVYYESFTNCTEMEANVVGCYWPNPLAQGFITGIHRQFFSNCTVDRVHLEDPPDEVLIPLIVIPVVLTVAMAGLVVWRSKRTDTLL

Question: What does the source list for `CC(C)C[C@H](NC(=O)[C@H](CCCNC(=N)N)NC(=O)CNC(=O)[C@H](CC(C)C)NC(=O)[C@@H](NC(=O)[C@@H]1CSSC[C@H](NC(=O)[C@H](C)N)C(=O)N[C@@H](CC(=O)O)C(=O)N[C@@H]([C@@H](C)O)C(=O)N[C@@H](C)C(=O)N[C@@H]([C@@H](C)O)C(=O)N1)C(C)C)C(=O)N[C@@H](CO)C(=O)N[C@@H](CCC(N)=O)C(=O)N[C@@H](CCC(=O)O)C(=O)N[C@@H](CC(C)C)C(=O)N[C@@H](Cc1c[nH]cn1)C(=O)N[C@@H](CCCNC(=N)N)C(=O)N[C@@H](CC(C)C)C(=O)N[C@@H](CCC(N)=O)C(=O)N[C@H](C(=O)N[C@@H](Cc1ccc(O)cc1)C(=O)N1CCC[C@H]1C(=O)N[C@@H](CCCNC(=N)N)C(=O)N[C@H](C(=O)N[C@@H](CC(N)=O)C(=O)N[C@H](C(=O)NCC(=O)N[C@@H](CO)C(=O)N[C@@H](CCCCN)C(=O)N[C@@H](C)C(=O)N[C@@H](Cc1ccccc1)C(N)=O)C(C)C)[C@@H](C)O)[C@@H](C)O` [ACX017] (H-ACDTATCVLGRLSQELHRLQTYPRTNVGSKAF-NH2; disulfide 2-7)?
Answer: activation of the adrenomedullin 2 (AM2) receptor [1]: did not activate the adrenomedullin 2 (AM2) receptor; appetite suppression (reduced food intake compared to Control group) [2]: suppressed appetite in the Test group for at least about four hours after dosing
